Laboratory results from publication PMC5699961 (Clinical pharmacokinetics, 2018).
Where two headings read alike, the source gives them in different places.

Assays:
[1] = 140 mg/kg dose, oral dosing; cited from earlier work
healthy subjects = test: Exposure-safety analysis; assay type: in vivo, human
[2] = test system: patients with solid tumors; settings: cited from earlier work
[3] = test system: swine subjected to hemorrhage and polytrauma; settings: intravenous VPA, absence of isotonic fluid resuscitation; cited from earlier work
blood brain barrier = settings: swine subjected to TBI and hemorrhagic shock; cited from earlier work
[4] = Single-dose plasma pharmacokinetics of intravenous VPA; settings: for concentration at 24 h / AUC / AUC(0-inf) / Cmax / half-life: human, plasma; for concentration at 24 h: intravenous; for AUC / AUC(0-inf) / Cmax / half-life: iv
[5] = 2-Compartment population model (final model), mean (SD)
[6] = 3-Compartment population model, mean (SD)

In the case of `CCCC(CCC)C(=O)O` [VPA, valproic acid], the Peak plasma concentrations [1] is listed as 300 to 400 µg/mL, the “Dose breakpoint for occurrence of adverse events” value (healthy subjects; Chills) is listed as over 6597 mg and the “Dose breakpoint for occurrence of adverse events” value (healthy subjects; Hearing adverse events) is listed as over 3222 mg. For the same molecule, the “Maximum tolerated dose (MTD)” value ([2]; cancer patients, intravenous, daily for five days) was 60 mg/kg/day, the “Previously established maximum tolerated single intravenous dose” value ([2]; ref 21) was 60 mg/kg and the “Previously established maximum intravenous dose” value ([2]; ref 22) was 75 mg. The “Previously established maximum tolerated single intravenous dose” value ([2]; ref 22) was 75 mg/kg, the Decrease in mortality [3] was 50% and the “Expression of tight-junction and basement membrane associated proteins (zona occludin-1, laminin, claudin-5)” value (blood brain barrier) was “increased expression”. The “Q1, intercompartmental clearance between central and first peripheral compartment” value [4, 5] was 0.64 (0.32) L/h, the “Vc, volume of distribution of the central compartment” value [4, 5] was 11.1 (2.62) L and the “Vp1, volume of distribution of the first peripheral compartment” value [4, 5] was 7.70 (3.28) L. The “Q1, intercompartmental clearance between central and first peripheral compartment” value [4, 6] was 0.62 (0.29) L/h, the “Q2, intercompartmental clearance between central and second peripheral compartment” value [4, 6] was 3.48(1.47) L/h and the “Vp1, volume of distribution of the first peripheral compartment” value [4, 6] was 7.63 (3.29) L. For the same molecule, the “Vp2, volume of distribution of the second peripheral compartment” value [4, 6] was 0.32(0.06) L, the concentration at 24 h ([4]; 15 mg/kg) was 22.6 µg/mL and the concentration at 24 h ([4]; 30 mg/kg) was 39.5 µg/mL. It also gave a concentration at 24 h ([4]; 60 mg/kg) of 39.8 µg/mL, a concentration at 24 h ([4]; 90 mg/kg) of 56.9 µg/mL and a concentration at 24 h ([4]; 120 mg/kg) of 49.7 µg/mL. It also gave a concentration at 24 h ([4]; 130 mg/kg) of 97.2 µg/mL, a concentration at 24 h ([4]; 140 mg/kg) of 140 µg/mL and a concentration at 24 h ([4]; 150 mg/kg) of 81.4 µg/mL. For the same molecule, the AUC ([4]; 15 mg/kg) was 1180 µg·h/mL, the AUC(0-inf) ([4]; 15 mg/kg) was 1710 µg·h/mL and the Cmax ([4]; 15 mg/kg) was 112 µg/mL. The half-life ([4]; 15 mg/kg) was 12.1 h, the AUC ([4]; 30 mg/kg) was 2200 µg·h/mL and the AUC(0-inf) ([4]; 30 mg/kg) was 3390 µg·h/mL. It also gave a Cmax ([4]; 30 mg/kg) of 235 µg/mL, a half-life ([4]; 30 mg/kg) of 12.1 h and an AUC ([4]; 60 mg/kg) of 2240 µg·h/mL. For the same molecule, the AUC(0-inf) ([4]; 60 mg/kg) was 3040 µg·h/mL, the Cmax ([4]; 60 mg/kg) was 248 µg/mL and the half-life ([4]; 60 mg/kg) was 11.3 h. It also gave an AUC ([4]; 90 mg/kg) of 4630 µg·h/mL, an AUC(0-inf) ([4]; 90 mg/kg) of 5810 µg·h/mL and a Cmax ([4]; 90 mg/kg) of 541 µg/mL. The half-life ([4]; 90 mg/kg) was 8.9 h, the AUC ([4]; 120 mg/kg) was 3840 µg·h/mL and the AUC(0-inf) ([4]; 120 mg/kg) was 4980 µg·h/mL. The Cmax ([4]; 120 mg/kg) was 537 µg/mL, the half-life ([4]; 120 mg/kg) was 9 h and the AUC ([4]; 130 mg/kg) was 7740 µg·h/mL. It also gave an AUC(0-inf) ([4]; 130 mg/kg) of 11300 µg·h/mL, a Cmax ([4]; 130 mg/kg) of 855 µg/mL and a half-life ([4]; 130 mg/kg) of 8.8 h. It also gave an AUC ([4]; 140 mg/kg) of 9870 µg·h/mL, an AUC(0-inf) ([4]; 140 mg/kg) of 13500 µg·h/mL and a Cmax ([4]; 140 mg/kg) of 1270 µg/mL. It also gave a half-life ([4]; 140 mg/kg) of 9.7 h, an AUC ([4]; 150 mg/kg) of 6910 µg·h/mL and an AUC(0-inf) ([4]; 150 mg/kg) of 8520 µg·h/mL. For the same molecule, the Cmax ([4]; 150 mg/kg) was 694 µg/mL and the half-life ([4]; 150 mg/kg) was 7.9 h.
